Calls of active or inactive are those of the source. The calls are words filed in the database; no cut-off is given here.
What was measured:
[1] = molecular target: T1, Dual specificity protein kinase CLK1 (Homo sapiens, UniProt P49759); test: Inhibition of recombinant human CLK1 (130 to end residues) using ERMRPRKRQGSVR as substrate incubated for 40 mins in presence of [gamma-33ATP] by scintillation counting based radiometry assay
Target sequence in this assay (P49759 whole entry): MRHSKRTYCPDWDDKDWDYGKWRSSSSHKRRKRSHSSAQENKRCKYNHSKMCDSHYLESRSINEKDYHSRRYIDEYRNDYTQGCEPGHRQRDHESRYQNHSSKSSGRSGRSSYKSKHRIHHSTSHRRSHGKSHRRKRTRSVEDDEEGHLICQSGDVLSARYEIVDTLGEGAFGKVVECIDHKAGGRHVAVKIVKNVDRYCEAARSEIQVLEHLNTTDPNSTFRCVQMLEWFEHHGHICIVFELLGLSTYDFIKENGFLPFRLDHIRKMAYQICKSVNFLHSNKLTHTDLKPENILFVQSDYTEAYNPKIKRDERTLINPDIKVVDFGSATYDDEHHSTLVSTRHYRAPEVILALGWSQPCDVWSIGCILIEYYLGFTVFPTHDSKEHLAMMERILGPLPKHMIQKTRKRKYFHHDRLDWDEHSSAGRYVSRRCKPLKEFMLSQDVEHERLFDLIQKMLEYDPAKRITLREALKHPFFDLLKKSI

SK-OV-3 [2] = test: Induction of autophagy in human SKOV-3 cells transfected with Ad-mRFP-GFP-LC3 assessed as induction of autophagosomes formation by measuring increase in number of yellow LC3 puncta at 0.1 uM measured after 24 hrs by confocal microscopic analysis; assay type: functional, cell-based
[3] = molecular target: Dual specificity protein kinase CLK2 (Homo sapiens, UniProt P49760); test: Inhibition of recombinant human CLK2 (138 to end residues) using YRRAAVPPSPSLSRHSSPHQS(p)EDEEE as substrate incubated for 40 mins in presence of [gamma-33ATP] by scintillation counting based radiometry assay
Dual specificity protein kinase CLK2, sequence (P49760 whole entry): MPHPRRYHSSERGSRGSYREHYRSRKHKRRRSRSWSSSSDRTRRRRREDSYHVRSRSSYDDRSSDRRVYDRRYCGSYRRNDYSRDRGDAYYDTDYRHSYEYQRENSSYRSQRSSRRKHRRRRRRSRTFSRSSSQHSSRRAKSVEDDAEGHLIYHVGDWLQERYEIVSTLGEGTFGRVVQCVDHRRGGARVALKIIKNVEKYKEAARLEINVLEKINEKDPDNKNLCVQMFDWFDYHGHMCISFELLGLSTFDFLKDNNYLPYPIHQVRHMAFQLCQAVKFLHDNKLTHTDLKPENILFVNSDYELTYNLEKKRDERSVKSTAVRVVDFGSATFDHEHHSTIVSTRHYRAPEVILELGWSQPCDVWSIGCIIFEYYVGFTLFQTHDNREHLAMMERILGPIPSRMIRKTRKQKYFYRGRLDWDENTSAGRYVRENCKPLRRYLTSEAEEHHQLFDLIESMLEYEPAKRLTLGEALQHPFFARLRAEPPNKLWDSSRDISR

[4] = molecular target: Dual specificity tyrosine-phosphorylation-regulated kinase 1A (Homo sapiens, UniProt Q13627); test: Inhibition of recombinant full length human DYRK1A using RRRFRPASPLRGPPK as substrate incubated for 40 mins in presence of [gamma-33ATP] by scintillation counting based radiometry assay
[5] = molecular target: Dual specificity protein kinase CLK3 (Homo sapiens, UniProt P49761); test: Inhibition of recombinant full length human CLK3 using ERMRPRKRQGSVR as substrate incubated for 40 mins in presence of [gamma-33ATP] by scintillation counting based radiometry assay
Dual specificity protein kinase CLK3, sequence (P49761 whole entry): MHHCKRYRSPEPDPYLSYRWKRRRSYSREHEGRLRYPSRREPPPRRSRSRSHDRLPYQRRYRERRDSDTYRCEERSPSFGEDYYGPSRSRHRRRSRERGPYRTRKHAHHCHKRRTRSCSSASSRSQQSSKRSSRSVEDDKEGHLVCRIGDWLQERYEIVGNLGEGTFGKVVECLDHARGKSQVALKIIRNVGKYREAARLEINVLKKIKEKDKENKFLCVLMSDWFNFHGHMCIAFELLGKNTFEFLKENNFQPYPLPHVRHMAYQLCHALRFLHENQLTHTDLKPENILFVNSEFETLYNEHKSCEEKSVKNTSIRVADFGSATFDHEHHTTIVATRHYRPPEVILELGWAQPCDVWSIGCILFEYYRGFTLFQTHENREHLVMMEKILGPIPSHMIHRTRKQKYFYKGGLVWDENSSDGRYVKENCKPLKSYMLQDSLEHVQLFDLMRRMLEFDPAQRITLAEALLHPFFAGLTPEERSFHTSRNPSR

[6] = molecular target: T1, Dual specificity protein kinase CLK1; test: Inhibition of CLK1 in human SKOV-3 cells assessed as redistribution of SR protein from nucleoplasm to nuclear speckles at 0.1 uM after 24 hrs by immunofluorescence assay; assay type: cell-based; details: SK-OV-3
Target sequence in this assay (P49759 whole entry, looked up): as the sequence (P49759 whole entry) above

SK-OV-3 [7] = test: Induction of autophagy in human SKOV-3 cells transfected with Ad-mRFP-GFP-LC3 assessed as induction of autolysosomes formation by measuring increase in number of red LC3 puncta at 0.1 uM measured after 24 hrs by confocal microscopic analysis; assay type: functional, cell-based
[8] = molecular target: Dual specificity protein kinase CLK4 (Homo sapiens, UniProt Q9HAZ1); test: Inhibition of recombinant human CLK4 (128 to end residues) using YRRAAVPPSPSLSRHSSPHQS(p)EDEEE as substrate incubated for 40 mins in presence of [gamma-33ATP] by scintillation counting based radiometry assay
Dual specificity protein kinase CLK4, sequence (Q9HAZ1 whole entry): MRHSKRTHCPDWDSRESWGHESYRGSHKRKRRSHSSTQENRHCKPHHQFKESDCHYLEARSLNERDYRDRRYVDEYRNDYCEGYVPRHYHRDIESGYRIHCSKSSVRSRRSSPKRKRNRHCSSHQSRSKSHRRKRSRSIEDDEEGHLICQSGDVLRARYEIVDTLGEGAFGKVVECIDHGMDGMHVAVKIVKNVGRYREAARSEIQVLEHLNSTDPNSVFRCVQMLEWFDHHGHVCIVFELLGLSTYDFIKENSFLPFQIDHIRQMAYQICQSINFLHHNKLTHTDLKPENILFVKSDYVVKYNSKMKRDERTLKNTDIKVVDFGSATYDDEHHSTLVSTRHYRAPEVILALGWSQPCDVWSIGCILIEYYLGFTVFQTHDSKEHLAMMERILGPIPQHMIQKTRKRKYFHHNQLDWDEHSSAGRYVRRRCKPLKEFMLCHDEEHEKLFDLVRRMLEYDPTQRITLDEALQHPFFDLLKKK

SK-OV-3 [9] = test: Induction of autophagy in human SKOV-3 cells assessed as increase in LC3-II protein level incubated for 24 hrs by Western blot analysis; assay type: functional, cell-based; details: dose 0.33-30 µM
SK-OV-3 [10] = test: Induction of autophagic flux in human SKOV-3 cells assessed as LC3-II protein level at 10 uM after 24 hrs in presence of V-ATPase inhibitor bafilomycin-A1 by Western blot analysis; assay type: functional, cell-based
[11] = molecular target: T1, Dual specificity protein kinase CLK1; test: Inhibition of CLK1 in human SKOV-3 cells assessed as decrease in SRp75 phosphorylation after 24 hrs by Western blot analysis; assay type: cell-based; details: SK-OV-3, dose 0.33-30 µM
Target sequence in this assay (P49759 whole entry, looked up): as the sequence (P49759 whole entry) above

[12] = molecular target: T1, Dual specificity protein kinase CLK1; test: Inhibition of CLK1 in human SKOV-3 cells assessed as decrease in SRp55 phosphorylation after 24 hrs by Western blot analysis; assay type: cell-based; details: SK-OV-3, dose 0.33-30 µM
Target sequence in this assay (P49759 whole entry, looked up): as the sequence (P49759 whole entry) above

SK-OV-3 [13] = test: Induction of autophagic flux in human SKOV-3 cells assessed as SQSTM1/p62 protein level at 10 uM after 24 hrs in presence of V-ATPase inhibitor bafilomycin-A1 by Western blot analysis; assay type: functional, cell-based
SK-OV-3 [14] = test: Induction of autophagy in human SKOV-3 cells assessed as degradation of SQSTM1/p62 at 0.33 to 30 uM measured after 24 hrs by Western blot analysis; assay type: functional, cell-based; details: dose 0.33-30 µM
SK-OV-3 [15] = test: Induction of autophagy in human SKOV-3 cells assessed as increase in LC3-II to LC3-I ratio incubated for 24 hrs by Western blot analysis; assay type: functional, cell-based; details: dose 0.33-30 µM
[16] = molecular target: Dual specificity tyrosine-phosphorylation-regulated kinase 1B (Homo sapiens, UniProt Q9Y463); test: Inhibition of recombinant full length human DYRK1B using RRRFRPASPLRGPPK as substrate incubated for 40 mins in presence of [gamma-33ATP] by scintillation counting based radiometry assay
Dual specificity tyrosine-phosphorylation-regulated kinase 1B, sequence (Q9Y463 whole entry): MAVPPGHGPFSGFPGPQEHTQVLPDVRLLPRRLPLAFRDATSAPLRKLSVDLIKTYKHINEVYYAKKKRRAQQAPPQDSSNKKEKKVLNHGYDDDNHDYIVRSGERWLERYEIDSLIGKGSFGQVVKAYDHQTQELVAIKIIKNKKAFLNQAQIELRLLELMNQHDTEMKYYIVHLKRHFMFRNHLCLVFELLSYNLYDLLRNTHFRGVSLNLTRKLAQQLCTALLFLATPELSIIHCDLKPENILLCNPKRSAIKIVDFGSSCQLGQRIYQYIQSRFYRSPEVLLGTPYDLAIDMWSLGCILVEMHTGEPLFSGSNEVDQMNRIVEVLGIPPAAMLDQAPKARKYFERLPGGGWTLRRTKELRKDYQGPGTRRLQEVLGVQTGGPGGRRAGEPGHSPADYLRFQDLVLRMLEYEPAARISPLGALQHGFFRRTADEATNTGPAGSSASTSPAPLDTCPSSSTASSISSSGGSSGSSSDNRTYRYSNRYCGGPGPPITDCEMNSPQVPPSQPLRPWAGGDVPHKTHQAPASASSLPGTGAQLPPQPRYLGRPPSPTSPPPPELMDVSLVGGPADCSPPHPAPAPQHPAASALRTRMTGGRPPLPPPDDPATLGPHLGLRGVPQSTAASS

Row | Compound | IC50 [1] | other results
1 | C[C@@H](NC(=O)c1cnc2ccc(-c3cnn(C)c3)cn12)c1ccc(Cl)cc1 | 11 nM | –
2 | CC(C)Oc1ccc(CNC(=O)c2cnc3ccc(-c4cnn(C)c4)cn23)cc1 | 8 nM | –
3 | COc1ccc(CNC(=O)c2cnc3ccc(-c4ccc5ccccc5c4)cn23)cc1 | > 10000 nM | –
4 | CNC(=O)c1cnc2ccc(-c3cnn(C)c3)cn12 | 23 nM | –
5 | COc1ccc(CNC(=O)c2cnc3ccc(-c4ccc5ncccc5c4)cn23)cc1 | 4 nM | Activity (SK-OV-3 [2]): Active; IC50 [3]: 50 nM; IC50 [4]: 10 nM; IC50 [5]: > 10000 nM; inhibition [6]: Active; Activity (SK-OV-3 [7]): Active; IC50 [8]: 17 nM; Activity (SK-OV-3 [9]): Dose-Dependent Effect; Activity (SK-OV-3 [10]): inactive; inhibition [11]: Dose-Dependent Effect; inhibition [12]: Dose-Dependent Effect; Activity (SK-OV-3 [13]): inactive; Activity (SK-OV-3 [14]): Active; Activity (SK-OV-3 [15]): Dose-Dependent Effect; IC50 [16]: 148 nM
6 | COc1ccc(CNC(=O)c2cnc3ccc(-c4c(C)noc4C)cn23)cc1 | > 10000 nM | –
7 | C[C@@H](NC(=O)c1cnc2ccc(-c3ccc4ncccc4c3)cn12)c1ccccc1 | 6 nM | –
8 | COc1ccc([C@H](C)NC(=O)c2cnc3ccc(-c4ccc5ncccc5c4)cn23)cc1 | 44 nM | –
9 | COc1ccc([C@@H](C)NC(=O)c2cnc3ccc(-c4ccc5ncccc5c4)cn23)cc1 | 6 nM | –
10 | COc1ccc([C@H](C)NC(=O)c2cnc3ccc(-c4cnn(C)c4)cn23)cc1 | 809 nM | –
11 | COc1ccc(NNC(=O)c2cnc3ccc(-c4ccc5ncccc5c4)cn23)cc1 | 5 nM | –
12 | COc1ccc([C@@H](C)NC(=O)c2cnc3ccc(-c4cnn(C)c4)cn23)cc1 | 8 nM | –
13 | C[C@H](NC(=O)c1cnc2ccc(-c3cnn(C)c3)cn12)c1ccc(Cl)cc1 | 399 nM | –
14 | Cn1cc(-c2ccc3ncc(C(=O)NCc4ccccc4)n3c2)cn1 | 12 nM | –
15 | COc1cccc(CNC(=O)c2cnc3ccc(-c4cnn(C)c4)cn23)c1 | 11 nM | –
16 | C[C@@H](NC(=O)c1cnc2ccc(-c3cnn(C)c3)cn12)c1ccccc1 | 14 nM | –
17 | C[C@H](NC(=O)c1cnc2ccc(-c3ccc4ncccc4c3)cn12)c1ccccc1 | 52 nM | –
18 | Cn1cc(-c2ccc3ncc(C(=O)NCc4ccc(Cl)cc4)n3c2)cn1 | 14 nM | –
19 | COc1ccc(NC(=O)c2cnc3ccc(-c4cnn(C)c4)cn23)cc1 | 7 nM | –
20 | C[C@H](NC(=O)c1cnc2ccc(-c3cnn(C)c3)cn12)c1ccccc1 | 296 nM | –
21 | COc1ccc(CNC(=O)c2cnc3ccc(-c4ccncc4)cn23)cc1 | 13 nM | –
22 | COc1ccc(CNC(=O)c2cnc3ccc(-c4ccc5ocnc5c4)cn23)cc1 | 122 nM | –
23 | COc1ccc(CNC(=O)c2cnc3ccc(-c4cnn(C)c4)cn23)cc1 | 6 nM | –
